Laboratory results: PubChem BioAssay (NCI)
Several values for one entry are separate records, joined by “and”; a condition that tells them apart may be missing. Equal values may be shown once.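 96-well plates; 48 h exposure; 5 concentrations. Endpoints by linear interpolation between flanking doses. Not reached: highest tested concentration assigned. The concentration for 50% growth inhibition is given as GI50. TGI: total growth inhibition.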

Legend:
Assay in all cases: NCI tumour cell line growth inhibition, 48 h
[1] = test system: A498 renal
[2] = test system: DU-145 prostate
[3] = test system: HCT-116 colon
[4] = test system: MDA-MB-435
[5] = test system: OVCAR-4 ovarian
[6] = test system: OVCAR-5 ovarian
[7] = test system: RXF 393 renal
[8] = test system: SNB-19 CNS
[9] = test system: UACC-257 melanoma
[10] = test system: EKVX NSCLC

CC(=O)N[C@@H](Cc1ccc(OP(=O)(O)O)cc1)C(=O)N[C@H]1CCC(=O)N2CCC[C@@H](C(=O)NCc3ccc(O)cc3)N2C1=O
GI50 [1]: > 25 µM | TGI [1]: > 25 µM | GI50 [2]: > 25 µM | TGI [2]: > 25 µM | GI50 [3]: > 25 µM | TGI [3]: > 25 µM | GI50 [4]: > 25 µM | TGI [4]: > 25 µM | GI50 [5]: > 25 µM | TGI [5]: > 25 µM | GI50 [6]: > 25 µM | TGI [6]: > 25 µM | GI50 [7]: > 25 µM | TGI [7]: > 25 µM | GI50 [8]: > 25 µM | TGI [8]: > 25 µM | GI50 [9]: > 25 µM | TGI [9]: > 25 µM

O=C1CCC(=O)C(C(=O)CCC(=O)Nc2cccc(Cl)c2)C1 (stereo unspecified)
TGI [1]: > 100 µM | TGI [10]: > 100 µM | TGI [3]: > 100 µM | TGI [6]: > 100 µM | TGI [7]: > 100 µM | TGI [8]: > 100 µM | TGI [9]: > 100 µM

C[C@@H](Oc1cc(-c2cnn(C3CC4(CCCNC4)C3)c2)cnc1N)c1c(Cl)ccc(F)c1Cl (stereo partly specified)
GI50 [1]: 0.532 µM | TGI [1]: 2.53 µM | GI50 [2]: 1.88 µM | TGI [2]: 6.92 µM | GI50 [3]: 0.741 µM | TGI [3]: 2.23 µM | GI50 [4]: 0.77 µM | TGI [4]: 2.18 µM | GI50 [5]: 1.85 µM | TGI [5]: 5.56 µM | GI50 [6]: 1.29 µM | TGI [6]: 4.93 µM | GI50 [7]: 1.28 µM | TGI [7]: 2.62 µM | GI50 [8]: 3.32 µM | TGI [8]: 14.4 µM | GI50 [9]: 1.45 µM | TGI [9]: 2.88 µM

CCOC(=O)C1CC/C(=C(/C#N)C(=O)OC)N1 (stereo unspecified)
TGI [1]: > 100 µM | TGI [10]: > 100 µM | TGI [3]: > 100 µM | TGI [5]: > 100 µM | TGI [7]: > 100 µM | TGI [8]: > 100 µM | TGI [9]: > 100 µM

NC(=O)CCC(NC(=O)C(F)(F)F)C(=O)O (stereo unspecified)
TGI [1]: > 100 µM | TGI [10]: > 100 µM | TGI [3]: > 100 µM | TGI [5]: > 100 µM | TGI [6]: > 100 µM | TGI [7]: > 100 µM | TGI [8]: > 100 µM | TGI [9]: > 100 µM

CC(C)NC(=O)O/N=C1\CCC2[C@@H]3CC=C4C[C@@H](OC(=O)NC(C)C)CC[C@]4(C)C3CC[C@]12C (stereo partly specified)
TGI [1]: > 30.3 µM | TGI [10]: 3.42 µM | TGI [3]: 4.94 µM | TGI [5]: 3.5 µM | TGI [6]: 4.26 µM | TGI [7]: 3.54 µM | TGI [8]: 6.05 µM | TGI [9]: 2.4 µM

O=C1c2cccc3cc([N+](=O)[O-])cc(c23)C(=O)N1O
TGI [2]: > 100 µM | TGI [10]: > 100 µM | TGI [3]: > 100 µM | TGI [4]: > 100 µM | TGI [5]: > 100 µM | TGI [6]: > 100 µM | TGI [7]: > 100 µM | TGI [8]: > 100 µM | TGI [9]: > 100 µM

CCOc1cc(/C=N\NC(=O)N/N=C/c2ccc(O)c(OCC)c2)ccc1O
GI50 [1]: 5.68 µM | TGI [1]: 61.3 µM | GI50 [2]: 2.21 µM | TGI [2]: > 100 µM | GI50 [10]: 4.38 µM | TGI [10]: > 100 µM | GI50 [3]: 0.866 µM | TGI [3]: > 100 µM | GI50 [5]: 54.3 µM | TGI [5]: > 100 µM | GI50 [6]: 59.3 µM | TGI [6]: > 100 µM | GI50 [7]: 1.76 µM | TGI [7]: 7.19 µM | GI50 [8]: 4 µM | TGI [8]: > 100 µM | GI50 [9]: 72.1 µM | TGI [9]: > 100 µM

CC1=NN(c2ccccc2)C(=O)C1N=Nc1ccc(Br)c(C)c1 (stereo unspecified)
TGI [1]: > 100 µM | TGI [10]: > 100 µM | TGI [3]: > 100 µM | TGI [5]: > 100 µM | TGI [6]: > 100 µM | TGI [7]: > 100 µM | TGI [8]: > 100 µM | TGI [9]: > 100 µM

Cc1cc(C)c2[s+]snc2c1
TGI [1]: > 100 µM | TGI [10]: > 100 µM | TGI [3]: > 100 µM | TGI [5]: > 100 µM | TGI [6]: > 100 µM | TGI [7]: 91.6 µM | TGI [8]: > 100 µM | TGI [9]: > 100 µM

N#CC12Cc3ccc4c(c3-c3cccc(c31)CCN2C(=O)c1ccccc1)OCO4 (stereo unspecified)
TGI [1]: > 100 µM | TGI [10]: > 100 µM | TGI [3]: > 100 µM | TGI [6]: > 100 µM | TGI [7]: > 100 µM | TGI [8]: > 100 µM | TGI [9]: > 100 µM

CC[O-].CC[O-].O=C([CH-]C(=O)c1ccccc1)c1ccccc1.O=C([CH-]C(=O)c1ccccc1)c1ccccc1.[Ti+4]
GI50 [1]: > 100 µM | TGI [1]: > 100 µM | GI50 [10]: > 100 µM | TGI [10]: > 100 µM | GI50 [3]: > 100 µM | TGI [3]: > 100 µM | GI50 [5]: > 100 µM | TGI [5]: > 100 µM | GI50 [6]: > 100 µM | TGI [6]: > 100 µM | GI50 [7]: 39.1 µM | TGI [7]: > 100 µM | GI50 [9]: > 100 µM | TGI [9]: > 100 µM

Cc1cc2c(cc1C)[n+]([O-])c(-c1c(Cl)cccc1Cl)c(N)[n+]2[O-]
TGI [1]: 79.9 µM | TGI [10]: > 100 µM | TGI [5]: > 100 µM | TGI [6]: > 100 µM | TGI [8]: > 100 µM | TGI [9]: 83.6 µM

O=C1c2ccccc2C(=O)c2sc(Nc3ccc(Cl)c(Cl)c3)nc21
TGI [1]: 31.6 µM | TGI [2]: 33.2 µM | TGI [10]: 29.5 µM | TGI [3]: 7.3 µM | TGI [5]: 5.69 µM | TGI [6]: 7.58 µM | TGI [7]: 12.4 µM | TGI [8]: 32.9 µM | TGI [9]: 8.63 µM

CC12OC3CC(O1)C1(C=O)C4CCC5(C)C(c6ccc(=O)oc6)CCC5(O)C4CCC1(C3)O2 (stereo unspecified)
TGI [1]: 1.35 µM | TGI [3]: 0.399 µM | TGI [5]: 0.308 µM | TGI [6]: 1.19 µM | TGI [7]: 0.256 µM | TGI [8]: 1.78 µM | TGI [9]: 0.774 µM

COC(=O)C(=O)C1CCCCC(C2=NC3NN=C(N)N3C2=O)C1=O (stereo unspecified)
TGI [1]: > 100 µM | TGI [10]: > 100 µM | TGI [3]: > 100 µM | TGI [5]: > 100 µM | TGI [6]: > 100 µM | TGI [7]: > 100 µM | TGI [8]: > 100 µM | TGI [9]: > 100 µM

NNC(=S)N/N=C/C(Cl)=C(\Cl)C(=O)O
TGI [1]: > 100 µM | TGI [10]: > 100 µM | TGI [3]: > 100 µM | TGI [5]: > 100 µM | TGI [6]: > 100 µM | TGI [7]: > 100 µM | TGI [8]: > 100 µM | TGI [9]: > 100 µM

CC(C)[O-].CC(C)[O-].[O-]c1cccc2cccnc12.[O-]c1cccc2cccnc12.[Ti+4]
GI50 [10]: > 100 µM | TGI [10]: > 100 µM | GI50 [3]: 3.24 µM and 3.87 µM | TGI [3]: > 100 µM | GI50 [6]: 51.1 µM | TGI [6]: > 100 µM | GI50 [7]: 2.42 µM | TGI [7]: 6.04 µM | GI50 [8]: 61.6 µM | TGI [8]: > 100 µM | TGI [9]: > 100 µM

C[N+]1=c2c3cccc4cccc(c(=O)n2CCC1)c43
TGI [1]: 36.5 µM | TGI [10]: 65 µM | TGI [3]: 43.6 µM | TGI [5]: 42.9 µM | TGI [6]: 36.5 µM | TGI [7]: 60.8 µM | TGI [9]: 32.9 µM

CCOc1ccc(NC(=O)CCC(=O)NN)cc1
TGI [10]: > 100 µM | TGI [5]: > 100 µM | TGI [6]: > 100 µM | TGI [7]: > 100 µM | TGI [8]: > 100 µM | TGI [9]: > 100 µM

Oc1[nH]c2ccc(Cl)cc2c1/C=c1/ccc2c(c1)N=C(c1cc(F)cc(F)c1)N=2
GI50 [2]: 4.82 µM | TGI [2]: > 100 µM | GI50 [10]: 27.7 µM | TGI [10]: > 100 µM | GI50 [5]: 2.77 µM | TGI [5]: > 100 µM | GI50 [6]: > 100 µM | TGI [6]: > 100 µM | GI50 [7]: 3.37 µM | TGI [7]: 9.88 µM | GI50 [8]: > 100 µM | TGI [8]: > 100 µM

CCc1oc2ccc(OC)c3c2c1C=CC=C3
TGI [1]: > 100 µM | TGI [10]: > 100 µM | TGI [5]: > 100 µM | TGI [6]: > 100 µM | TGI [7]: > 100 µM | TGI [8]: > 100 µM | TGI [9]: > 100 µM
